These results are taken from a melting point compilation (Tetko et al.; mined from patent text by program, amines drawn as free bases though some values may be those of a salt).

Broadly, the melting point is the temperature of the solid-liquid transition.

Molecules are shown by their SMILES.

Regarding `CNC(=S)NCCCSc1ncc[nH]1`, the melting point lay within 139 to 141 °C.

`CCCCn1c(=O)[nH]c2ccc(OC)c(OC)c2c1=N` registered a melting point of 165 to 168 °C.

In turn, `C(=Nn1ccnc1)c1ccccc1` showed a melting point of 115 °C.

As to `C[C@]1(Cn2cc([N+](=O)[O-])nc2Cl)CO1`, the melting point lay within 65.5 to 67 °C.

`CC(C)COc1c(C2CCN(CCCCNC(=O)c3ccc(-c4ccc(C(F)(F)F)cc4)cc3)CC2)ccc2c1CCCC2` had a melting point of 165 °C.

In turn, `CCCCCCCCCCCCCCCCNc1ccc(C(=O)OC)cc1` returned a melting point of 74 to 75 °C.

Turning to `COC(=O)CCc1cc2cc(Cl)ccc2n1S(=O)(=O)c1ccc2nc(NC(C)=O)sc2c1`, the melting point fell in the range of 217 to 221 °C.

Compound `Cc1cn(-c2cc(NC(=O)n3ccc4cc(Oc5cc(CC(N)=O)ncn5)ccc43)cc(C(F)(F)F)c2)cn1` came in with a melting point of 223 to 229 °C.

`CC[C@@]12CC(=O)[C@](O)(c3ccccc3)C[C@H]1CCc1cc(O)ccc12`: the melting point lay in the range of 97 to 98 °C.

`CNS(=O)(=O)c1ccccc1Nc1nc(Nc2ccc3c(c2)COCCN3C)ncc1Cl` registered a melting point of 163 to 164 °C.

For the compound `COc1ccc(-n2nc(Br)cc2-c2ccc(SC)cc2)cc1`, the melting point lay in the range of 144 to 145 °C.

Compound `CCCc1c(C(=O)C(C)C)c2ccc(C(=O)OC)cc2n1Cc1ccccc1[N+](=O)[O-]` yielded a melting point of 166 °C.

Consider `CCN1CCNC(=O)C1c1ccc(Nc2nc(-c3ccc(F)c(NC(=O)c4cc5c(s4)CCCC5)c3C)cn(C)c2=O)cc1` (stereo unspecified), for which the melting point was in the range of 179 to 180 °C.

With `CC(C)C(=O)N1C2=NCCN2C(=O)c2nc(C(C)C)[nH]c21`, the melting point lay within 271 to 273 °C.

Consider `O=C(c1ccc(Nc2ccnc3cc(C(F)(F)F)ccc23)cc1)N1CCC(Sc2ccc(F)cc2)CC1`, for which the melting point lay within 211 to 214 °C.

The compound `CC(C)([C@H](NC(=O)c1ccccc1)C(=O)N[C@@H](Cc1ccccc1)[C@H](O)CN1C[C@H]2CCCC[C@H]2C[C@H]1C(=O)NCc1ccccc1)S(C)(=O)=O` displayed a melting point of 212 to 218 °C.

For the compound `O=C(Nc1ccc(OC(F)(F)F)cc1)N[C@H]1CC[C@@H](Oc2ccc(C(=O)O)cc2)CC1`, the melting point is 210 to 212 °C.

For `CCOC(=O)[C@@H]1CCCN1C(=O)C1=Cc2ccccc2CC1`, the melting point was in the range of 55 to 57 °C.

`O=C(Nc1ccccc1)c1ccc(-c2n[nH]c3c2Cc2ccccc2-3)cc1` came in with a melting point of 186 to 190 °C.

In the case of `C=CC[C@H](CC(=O)OC(C)(C)C)C(=O)N[C@H](C(=O)N[C@H](COC)c1ccccc1)C(C)C`, the melting point was 155 to 157 °C.

In turn, `CCOc1ccccc1-c1nc2nc(SC)ncc2c(=O)[nH]1` returned a melting point of 224 to 226 °C.

As to `CCSC(=S)N1Cc2[nH]c3ccccc3c2CC1CO` (stereo unspecified), the melting point lay in the range of 74 to 76 °C.

With `Nc1nc(N)c2cc(CCc3ccc(C(=O)N[C@@H](CCC(=O)O)C(=O)O)cc3)cnc2n1`, the melting point was above 250 °C.

As for `Cc1cc2oc(=O)c(NC(=O)Nc3cccc(C(F)(F)F)c3)c(-c3ccccc3C)c2cc1Cl`, the melting point was in the range of 203 to 205 °C.

For the compound `CC12CCC3C(CCC4CC(O)CCC43C)C1CCC2C#CBr` (stereo unspecified), the melting point lay within 165 to 167 °C.

The compound `COc1cc(S(C)(=O)=O)c(C)cc1OCC(=O)NCC(O)COc1ccccc1C` (stereo unspecified) yielded a melting point of 75 to 79 °C.

`O=C(Nc1ccc(-n2nc(C(F)(F)F)cc2C(F)(F)F)cc1)c1cccnc1F` yielded a melting point of 110 to 112 °C.

As to `FC(F)(F)c1ccccc1-c1nnc(Nc2cccc(SCc3ccccc3-c3ccccc3)c2)s1`, the melting point fell in the range of 73 to 75 °C.

In turn, `CC(C)c1cc(C(C)C)c(CC(=O)NS(=O)(=O)Oc2c(C(C)C)cc(S(N)(=O)=O)cc2C(C)C)c(C(C)C)c1` registered a melting point of 164 to 166 °C.

`Cc1ncc([N+](=O)[O-])n1CCN(CCCCN(CCn1c([N+](=O)[O-])cnc1C)CCn1c([N+](=O)[O-])cnc1C)CCn1c([N+](=O)[O-])cnc1C`: the melting point is 194 to 196 °C.

As for `Cc1ccc(Cl)cc1NC(=O)c1cc([N+](=O)[O-])ccc1NC(=O)CF`, the melting point is 210 to 212 °C.

As to `OCCC1(c2ccccn2)CCNC1` (stereo unspecified), the melting point lay within 50 to 55 °C.

For the compound `Cn1c(C#N)ccc1-c1cc(F)c2c(c1)C1(CC1)C(=O)N2`, the melting point fell in the range of 228 to 231 °C.

As for `NC(=O)C=Cc1cccc(NC(=O)c2cc(-c3cccc(F)c3)ccc2F)c1`, the melting point lay in the range of 216 to 218 °C.

Consider `COCCCc1nc(C(F)F)ccc1C(=O)O`, for which the melting point was 86 to 87 °C.

Compound `CCc1cc(C(C)=O)c(O)cc1OCCCCCN` showed a melting point of 75 to 76 °C.

Consider `Cc1csc2c(Br)c(C=O)sc12`, for which the melting point lay in the range of 127 to 129 °C.

`Cc1cc(Cl)cc(C(=O)c2ccc(S(C)(=O)=O)cc2Cl)c1O`: the melting point is 175 to 180 °C.

The compound `C=CCOC(=O)c1ccccc1OS(=O)(=O)NC(=O)Nc1nc(OC)cc(OC)n1` displayed a melting point of 110 to 112 °C.

Consider `Cc1cn(C2CC(ON)C(CO[Si](C)(C)C(C)(C)C)O2)c(=O)[nH]c1=O` (stereo unspecified), for which the melting point was 171 °C.

For `COc1cc(-c2ccc3n[nH]c(=O)n3n2)cc(OC)c1OC`, the melting point was in the range of 289 to 290 °C.

Turning to `CN1CCCCC(c2cccc(O)c2)C1=O` (stereo unspecified), the melting point lay in the range of 188 to 191 °C.

`O=C(O)Cc1cccc(-c2onc3ccccc23)c1`: the melting point was in the range of 143 to 145 °C.

In turn, `COc1ccc(C(O)c2ccc3cc(OC)ccc3c2)c(F)c1` (stereo unspecified) displayed a melting point of 68 to 69 °C.

Take `c1ccc(C(OC2CCNCC2)c2ccccc2)cc1`: the melting point amounted to 56 °C.

The compound `O=C(O)CCn1c(=O)n(CCCN2CCC(OC(c3ccccc3)c3ccccc3)CC2)c(=O)c2ccccc21` registered a melting point of 237 to 238 °C.

Consider `CCC(=O)C1=CC=C(OC)C(Cl)(Cl)C1`, for which the melting point was 51 to 54 °C.

Compound `CCCOc1ccccc1C(=O)Nc1ccccc1C(N)=O` had a melting point of 149 to 150 °C.

Regarding `Cc1cc(-c2ccc(F)cc2)n(-c2ccc(S(N)(=O)=O)cc2)c1`, the melting point lay within 168 to 170 °C.

Regarding `Cc1ccc(C(=O)c2c(C)c(C(=O)O)c(CC(=O)O)n2C)cc1`, the melting point was in the range of 229 to 230 °C.

In turn, `O=C(O)c1ccccc1NC(=O)c1ncoc1-c1ccc(C(F)(F)F)cc1` gave a melting point of 231 to 232 °C.

Compound `Cc1c(Br)c(=O)oc2nn(Cc3ccccc3Cl)c(C)c12` yielded a melting point of 206 to 208 °C.

Turning to `CCOC(=O)[C@H](Cc1cccc(-c2ccc3ccccc3c2)c1)NC(=O)C(F)(F)F`, the melting point lay within 89 to 91 °C.

`CCCOc1ccc(S(=O)(=O)N2CCNCC2)cc1-c1nc2c(CCC)nn(C)c2c(=O)[nH]1`: the melting point lay within 185 to 186 °C.

Turning to `Cn1nc(C(=O)NCc2ccc(Cl)cc2)c(=O)c2cc(I)ccc21`, the melting point is 194 to 195 °C.

As for `CC12CCC3c4cc(O)c(O)cc4CCC3C1CCC2O` (stereo unspecified), the melting point fell in the range of 181 to 183 °C.

`CC(=O)c1ccc2c(c1)Sc1cc(C(C)=O)ccc1O2` yielded a melting point of 179 °C.

The compound `CC(C)C1C(=O)N(CCl)S(=O)(=O)N1C` (stereo unspecified) showed a melting point of 118 to 120 °C.

Regarding `CC(C)CC(=O)Nc1c(C(=O)c2cc(Cl)ccn2)[nH]c2cc(Cl)ccc12`, the melting point was 183 to 184 °C.

The compound `COCc1ccc(-c2ccc3c(c2)C=C(C(=O)Nc2ccc(CN(C)C4CCOCC4)cc2)CCS3(=O)=O)cc1` registered a melting point of 227 to 229 °C.

Compound `COC(=O)C(C)(C)OCc1cc2nc(Cl)ccc2n1S(=O)(=O)c1ccccc1` displayed a melting point of 84 to 87 °C.

Regarding `O=C(NCc1ccc(Cl)cc1)c1cnc2sc(C#CCO)cc2c1O`, the melting point fell in the range of 233 to 236 °C.

Take `CCCCOc1ccc(Nc2c([N+](=O)[O-])ccc(Cl)c2C(=O)O)cc1`: the melting point lay in the range of 166 to 169 °C.

Compound `COc1cc(OCc2ccccn2)ccc1C=O` gave a melting point of 93.6 °C.

`N#CCCCCCC(=NO)c1ccc(Cl)cc1` showed a melting point of 58 to 59 °C.

`COc1cc2ccccc2c(Br)c1O` displayed a melting point of 100 to 101 °C.

On to `COC1(c2ccco2)CC2=C(C=C1C(F)(F)F)N(C(=O)Nc1cccnc1)CC2` (stereo unspecified), for which the melting point was in the range of 92 to 94 °C.

In the case of `O=C1Nc2ccc(-c3cccc([N+](=O)[O-])c3)cc2C2(CCCCC2)O1`, the melting point is 245 to 246 °C.

As to `CCCCCCCCCCCCCCCCOCCSCCOC(=O)NCc1ccccn1`, the melting point lay in the range of 55 to 56 °C.

`O=S(=O)(Nc1ccc(Oc2cccc3cccnc23)cc1)c1ccc(Cl)cc1` came in with a melting point of 220 °C.

For `CCOC[C@@H]1CNCC[C@@H]1c1ccc(Cl)c(Cl)c1`, the melting point lay within 68 to 70 °C.

In turn, `OCC1OC(n2cnc3c(-c4ccccc4)ncnc32)C(O)C1O` (stereo unspecified) displayed a melting point of 224 to 225 °C.

Take `CS(=O)(=O)c1ccc(Oc2ccc(C#N)cc2)nc1`: the melting point was in the range of 195 to 196 °C.

For the compound `CC(=O)NC[C@H]1CN(c2ccc(-n3cc(-c4ccncc4)cn3)c(F)c2)C(=O)O1`, the melting point fell in the range of 204 to 205 °C.

Compound `CC(C)(CO)NS(=O)(=O)c1cccc(NC(=O)c2cnn3c(C(F)F)cc(-c4ccc(C(F)(F)F)cc4)nc23)c1` came in with a melting point of 232 °C.

`CNC(=S)NN=C(CCCOC(=O)Nc1ccccc1)c1ccccc1` had a melting point of 155 to 157 °C.

Regarding `O=C1NC(=S)SC1=Cc1cccc(Cl)c1Cl`, the melting point is 203 to 204 °C.

With `Cn1c(C(F)(F)F)cc(=O)n(-c2cc(Oc3ncccn3)c(Cl)cc2F)c1=O`, the melting point was 192 to 194 °C.

`CC(C)(C)SC1CN(C(=O)NCCN2C(=O)c3ccccc3C2=O)CC1NS(=O)(=O)c1ccc(Oc2ccccc2)cc1` (stereo unspecified) gave a melting point of 105 to 106 °C.

Consider `COC(=O)CC1CCc2cc(O)ccc2C1=O` (stereo unspecified), for which the melting point fell in the range of 121 to 123 °C.

For the compound `CCCCCC(C)C(C)c1cc(O)c2c(c1)OC(C)(C)C1=C2CN(C(C)C(=O)NC(N)=O)CC1` (stereo unspecified), the melting point was 95 to 100 °C.

On to `CNC(=O)N(N=Cc1ccccc1)c1nnc(C(C)(C)C)s1`, for which the melting point lay in the range of 115 to 116 °C.

The compound `NS(=O)(=O)c1ccc(-c2noc(-c3cnc4ccc(-c5ccc(C(F)(F)F)cc5)cn34)n2)cc1` registered a melting point of 288 °C.

As for `CCOC(=O)c1cnn(-c2ccc(Cl)cc2C(F)(F)F)c1C#N`, the melting point was 70 to 72 °C.

Compound `CCOC(=O)c1c(CCc2ccc(OC)cc2)oc2ccc(C#N)cc12` gave a melting point of 135 to 139 °C.

The compound `Cc1ccnc2c1C(=O)CC(c1cccc(Cl)c1Cl)C2` (stereo unspecified) came in with a melting point of 123 to 124 °C.
